PMC5048153 (Scientific Reports, 2016)
Like-named read-outs stand apart in the source and are kept apart here.

Columns and labels:
[1] = test system: corticosterone injured PC12 cells; test: Intracellular ROS level (DCF-DA); type: cell-based, rat; details: 200 μM corticosterone and 5 μM drug; vehicle-treated PC12 cells = 100%
Procedure: In brief, PC12 cells were washed with D-Hanks after drug treatment. Then cells were incubated with 2′, 7′-dichloro-fluorescein diacetate (DCF-DA, 20 μM) for 30 min at 37 °C in darkness.

[2] = target: T1, 5-HT2C receptor (Homo sapiens, UniProt P28335); test: FLIPR assay for 5-HT2C antagonism; type: cell-based; details: for inhibition at 100 µM: read-out: Inhibition 5-HT2C
T1 sequence (P28335 33-458): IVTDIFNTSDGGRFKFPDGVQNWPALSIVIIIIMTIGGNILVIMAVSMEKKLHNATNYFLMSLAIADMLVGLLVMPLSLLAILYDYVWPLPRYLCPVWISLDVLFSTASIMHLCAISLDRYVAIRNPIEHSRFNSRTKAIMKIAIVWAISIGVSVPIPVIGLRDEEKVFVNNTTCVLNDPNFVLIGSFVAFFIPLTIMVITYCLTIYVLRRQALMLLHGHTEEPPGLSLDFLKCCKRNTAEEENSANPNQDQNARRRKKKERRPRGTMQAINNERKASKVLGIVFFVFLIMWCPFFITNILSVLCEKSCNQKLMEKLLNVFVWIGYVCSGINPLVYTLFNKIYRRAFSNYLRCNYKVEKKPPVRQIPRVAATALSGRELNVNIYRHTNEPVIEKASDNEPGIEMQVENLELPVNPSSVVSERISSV
Procedure: Seed cells at the density of 10 K cell/well, 37 °C, 5% CO2 incubate for 16–24 hours, then loading cells with 30 ul of Calcium 5 and 37 °C, 5% CO2 incubate for 1 hour. After transfer compound to compound plate with 30 ul Assay Buffer by Echo, add 15 ul/well of compound, incubate for 10 mins.

[3] = test system: SD rats; test: Forced swim test; type: in vivo, rat; details: ig. 32 mg/kg/day, days 2–15
Procedure: The detailed procedures were performed according to our previous studies. Briefly, each SD rat was placed in a vertical Plexiglas cylinder (height 50 cm; diameter 20 cm) containing 18 cm height of water at 25 ± 2 °C and was forced to swim individually for 15 min on1st day. From 2nd day to 15th day, the rats were intragastrically administered compound 6a-1 or control drugs at dosage of 32 mg/kg/day. On the 2nd day and 15th day, 30 minutes after drug treatment, each rat was placed again into water and forced to swim for 6 min. The rat behavior was recorded by a video camera placed directly facing cylinders. The duration of immobility during the last 4 minutes was analyzed by Xeye Animal behavior analysis system (Xeye Aba V3.2). The rat was considered as immobile when its moving speed was less than 20 mm/s. The dosage of is 32 mg/kg every day. The water in the cylinder was changed each trial. After each exposure, animals were partially dried with a towel and returned to their home cages. All tests were performed in a quiet room.

[4] = test system: corticosterone injured PC12 cells; test: Intracellular GSH level; type: cell-based, rat; details: 200 μM corticosterone and 5 μM drug; vehicle-treated PC12 cells = 100%
Procedure: The GSH level was measured by reference of literatures’ methods[55][56] with appropriate revision. […] After being incubated on ice for 10 min, the lysate was centrifuged at 10 000 rpm for 10 min. […] The mixture was centrifuged at 3000 × g for 10 min at 4 °C, and then 200 μL of the resulting supernatant was mixed with 1 mL of phosphate buffer (100 mM, pH 8.0) and 50 μL of 5, 5-dithiobis-2-nitrobenzoic acid (DTNB).

[5] = test system: rat hippocampus; test: Cell survival, proliferation and maturation in the rat hippocampus; type: in vivo; details: rats, 21 days
Procedure: (§1) The detailed procedures were performed according to the reported literatures.
Wistar rats were used herein. Agomelatine were purchased from Dalian Meilun Biotech Company. […] For cell proliferation study, BrdU (200 mg/kg i.p.) was administered 2 h before perfusion. For cell maturation and survival studies, animals received five injections of BrdU (75 mg/kg, 2 h intervals) the first day of treatment and were killed 21 days later. […] was randomly selected 8 visual fields for statistical analysis.

[6] = test system: C57 mice; test: Acute toxicity evaluation with H&E histology; type: in vivo, mouse
Procedure: Ten mice of each group were sacrificed on the 7th day, their heart, liver, spleen, lung and kidney were harvested and H&E histological staining was performed. Then the stained tissues were observed by two pathologists in a blinded manner.

[7] = test system: SD rats; test: Open field locomotor activity; type: in vivo, rat; details: ig. 32 mg/kg/day, days 2–15, vs untreated rats
Procedure: The detailed procedures were performed according to our previous studies. In brief, each SD rat was placed at the center of the open field (50 × 50 cm^2 chamber, 50-cm-high walls, with a 25 cm^2 area in the middle of floor defined as the central square) for 6 min in a quiet room. The animals were gently placed in the center of the platform and were allowed to explore the surroundings. A camera was installed above the center of the field. Immediately after a rat was placed at the center in the open field, the movements and position of the animals were recorded and registered automatically by computerized system. Next test was performed after cleaning the chamber. The traveled tracks of rats were recorded for 6 minutes and the videos of the last 4 minutes were analyzed also by Xeye Animal behavior analysis system.

[8] = test system: corticosterone injured PC12 cells; test: Real-time PCR BDNF mRNA level; type: cell-based, rat; details: 200 µM corticosterone and 5 µM drug
[9] = test system: HEK293 cells; test: Cytotoxicity on HEK293 cells (MTT); type: cell-based, human; details: Homo sapiens, HEK293, 100μM, after treatment; read-out: IR (inhibitory rate) HEK293
In short: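 HEK293 human embryonic kidney cells were plated in 96-well plates at 4 × 10^3 cells per well and grown in 1640 or DMEM medium containing 10% fetal bovine serum, penicillin (100 unit/ml) and streptomycin (100 μg/ml) for 24 h at 5% CO2 in a humidified incubator. Compound cytotoxicity was then determined using the MTT method.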

[10] = test system: rat hippocampus; test: BDNF, VEGF and IGF-1 level in vivo (ELISA); details: 21-day treatment, i.p. 40 mg/kg, vs vehicle-treated group
Procedure: as §1
SD rats were killed by decapitation and hippocampi were dissected out and stored at −80 °C until use. Tissue samples were homogenized at 4 °C in Promega lysis buffer for ELISA. Samples were then sonicated and lysates were cleared by centrifugation at 4 °C, 15 000 g. Protein concentrations were determined according to the Bradford assay using bovine serum albumin as standard. Quantifications of VEGF and IGF-1 proteins were measured with Quantikine M mouse VEGF and IGF-1enzyme immunoassay kits and BDNF protein with a mouse ELISA kit.

[11] = test system: corticosterone-injured PC12 cells; test: Intracellular calcium ion concentration analysis (Fura-2 AM); type: cell-based, rat; details: 200 µM corticosterone and 5 µM drug
Procedure: The detailed procedures were performed according to the reported literatures. In brief, calcium ion concentration was measured by Fura-2 AM (Thermo Scientific). PC12 cells were treated with compound 6a-1 for 48 hours. Then cells were detached with 0.25% trypsin and centrifuged at 1000 r/min for 5 minutes. The supernatant was removed and the cells were stained with Fura-2 AM according to the manufacturer’s instructions. Fluorescence intensity of labeled cells was photographed for 25 random sights each group using Thermo Scientific Array Scan Infinity.

| SMILES | ROS level [1] | mean immobility time reduced compared to the model group [3] | GSH level [4] | expression of PSA-NCAM compared with vehicle-treated group ([5]; i.p. 40 mg/kg) | heart histology (H&E) ([6]; 140 mg/kg/day, 7th day) | liver histology (H&E) ([6]; 140 mg/kg/day, 7th day) | spleen histology (H&E) ([6]; 140 mg/kg/day, 7th day) | improved travelled distance [7] | BDNF mRNA level increase compared with corticosterone-injured group [8] | inhibition at 100 µM [9] | hippocampal IGF-1 level [10] | hippocampal VEGF level [10] | fluorescence intensity of free intracellular calcium ion [11] | other results |
| --- | --- | --- | --- | --- | --- | --- | --- | --- | --- | --- | --- | --- | --- | --- |
| COc1ccc2c(c1)C(CCNC(C)=O)=NCC2.O=C(O)C(=O)O [6a-1, N-(2-(7-Methoxy-3,4-dihydroisoquinolin-1-yl)ethyl) acetamide oxalate] | 140.3% | 62.5% | 87.7% | reduced the expression of PSA-NCAM | cardiac myocytes were fragmented and arranged promiscuously | hepatic cords were distinctly clear | unchanged | 131.2% | 42.8% | < 20% | neither compound 6a-1 nor Agomelatine exerted any influence | neither compound 6a-1 nor Agomelatine exerted any influence | much weaker fluorescence intensity than Fluoxetine and Agomelatine | IC50 ([2]; FLIPR calcium flux, read-out: IC50 5-HT2C antagonism): > 100 µM; inhibition at 100 µM [2]: 5.2%; number of BrdU-labeled neuron cells (proliferation) ([5]; i.p. 40 mg/kg once daily): remarkably increased; number of BrdU-labeled neuron cells (survival) ([5]; i.p. 40 mg/kg once daily): remarkably increased; number of NeuN cells compared with vehicle-treated group ([5]; i.p. 40 mg/kg): significant (P < 0.001) increase; number of PSA-NCAM-labeled cells relative to Agomelatine group ([5]; i.p. 40 mg/kg): approximately three-fold decrease; kidney histology (H&E) ([6]; 140 mg/kg/day, 7th day): did not show any significant difference compared with normal; lung histology (H&E) ([6]; 140 mg/kg/day, 7th day): did not show any significant difference compared with normal; clinical signs of toxicity ([6]; intragastric 140 mg/kg/day, 7-day administration): No visible clinical signs of toxicity |
| COc1ccc2cccc(CCNC(C)=O)c2c1 [Agomelatine, reference compound] | 125.0% | 8.4% | 93.4% | reduced the expression of PSA-NCAM | no necrosis, hemorrhage or inflammatory exudates were observed | severely damaged | unchanged | 91.2% | 37.2% | 47.5% | neither compound 6a-1 nor Agomelatine exerted any influence | neither compound 6a-1 nor Agomelatine exerted any influence | weaker fluorescence intensity than corticosterone-injured PC12 cells | inhibition at 100 µM ([2]; max tested concentration at 100μM): 66.6% |
